pIC50: −log10 of the molar value. Several values for one entry are separate records, joined by “and”; a condition that tells them apart may be missing. Identical values can stand only once.
Test system: 855422-203-R-J1-PDC complex spheroids, viability
Experiment: Anticancer human tumor 855422-203-R-J1-PDC patient-derived bladder carcinoma cell line growth inhibition [CLK]
Settings: for viability, T/C: stronger effect = lower value
Excerpt: A high-throughput screen of multi-cell type tumor spheroids was designed to identify active combinations of […] and targeted small molecules. Complex spheroids include a stromal component modeled by human endothelial cells (HUVEC) and fibroblasts modeled by human mesenchymal stem cells (MSCs). The concentration ranges selected for each drug and investigational agent were based upon clinically achievable concentrations if the clinical Cmax of the agent was known.
Compounds. The drugs and investigational agents: cirtuvivint (SM08502; NSC835563), CC-671 (NSC850746), vemurafenib (NSC761431), tapotoclax (NSC804041), sotorasib (NSC818433), adagrasib (NSC831453), MRTX-1133 (NSC836407), BAY2416964 (NSC825713), copanlisib (NSC816437), inavolisib (NSC800729), abemaciclib (NSC768073), osimertinib (NSC779217), entinostat (NSC756642), eltanexor (KPT-8602, NSC794443), venetoclax (NSC766270), ceralasertib (NSC777638), bortezomib (NSC756655), olaparib (NSC753686), talazoparib (NSC767125), alisertib (NSC759677), peposertib (NSC802822), gemcitabine (NSC613327), 5-fluorouracil (NSC19893), SN-38 (NSC673596), oxaliplatin (NSC266046), paclitaxel (NSC125973), and doxorubicin (NSC123127), were obtained from the National Cancer Institute (NCI) Developmental Therapeutics Program Chemical Repository. The FDA-approved anticancer drug set is available from the Developmental Therapeutics Program at https://dtp.cancer.gov/organization/dscb/obtaining/available plates.htm. […] The stock solutions were prepared in dimethyl sulfoxide (DMSO, Sigma-Aldrich, St. Louis, MO, cat. D2650), except for the platinum complexes which were prepared in saline (Quality Biological, Gaithersburg, MD, cat. 114-055-101), at 800-fold the tested concentration and stored at -70 degrees C prior to their use. All drugs and investigational agents were tested over a range starting from a high concentration at or near the clinical Cmax and decreasing in half-log increments. If the clinical Cmax for an agent had not been determined, the highest concentration tested was 10 microM.
Cell Culture. All cells were maintained in an incubator at 37 degrees C and 5% CO2 with 95% humidity. The PDC lines were cultured according to standard operating procedures established by the NCI PDMR. Briefly, all PDCs were thawed and cultured in Matrigel-coated flasks prepared with a working solution of 1X Ham's F-12 nutrient mix, without supplementation (Invitrogen, Waltham, MA, cat. 11765054), 100 U/mL penicillin-streptomycin (Invitrogen, cat. 15140122), and 2.5% Matrigel (Corning Inc., Corning, NY, cat. 354248) for the first three passages. The 947758-054-R-J2-PDC line was cultured in 6B/Colon 1A media, which includes advanced DMEM/F-12 (Thermo Fisher Scientific, cat. 12634028), 10 mM HEPES (Thermo Fisher Scientific, cat. 15630080), 1X GlutaMAX supplement (Thermo Fisher Scientific, cat. 35050061), 0.1 mg/mL primocin (InvivoGen, cat. ant-pm-2), 10% defined fetal bovine serum, heat inactivated (HyClone Laboratories Inc., cat. SH30070.03HI), 1.25 mM N-Acetyl-L-cysteine (Sigma-Aldrich, cat. A9165), 10 mM nicotinamide (Sigma-Aldrich, cat. N0636), 1X B-27 supplement (Thermo Fisher Scientific, cat. 17504044), 1X N-2 supplement (Thermo Fisher Scientific, cat. 17502048), and 10 microM Y-27632 dihydrochloride (Tocris Bioscience, cat. 1254). The 876862-298-R-J1-PDC was cultured in 6E media, which includes all 6B/Colon 1A media components plus 50% L-WRN conditioned media (ATCC, cat. CRL-3276), 50 ng/mL recombinant human EGF recombinant protein (hEGF; Thermo Fisher Scientific, cat. PHG0311), 10 ng/mL recombinant human fibroblast growth factor 10 (hGFG-10; PeproTech, cat. 100-26), 1 ng/mL recombinant human fibroblast growth factor 2 (hFGF-2; PeproTech, cat. 100-18B), and 1 µM prostaglandin E2 (PGE2; Tocris, cat. 2296). The 227483-062-R1-J1-PDC line was cultured in Panc media, containing all 6E components except hFGF-2, with the addition of 500 nM SB-431542 (Selleckchem, cat. S1067) and 10 nM gastrin (Tocris, cat. 3006). […]
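Further: spheroids exposed to drugs for seven days before readout.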
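Wherever viability, T/C is given: 100% = DMSO vehicle control wells.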

For `CCCS(=O)(=O)Nc1ccc(F)c(C(=O)c2c[nH]c3ncc(-c4ccc(Cl)cc4)cc23)c1F` + CNC(=O)c1ccc(Nc2nc(OC3CCCC3)c3c(-c4ccc5nc(C)oc5c4)c[nH]c3n2)c(OC)c1, the pIC50 (curve of first compound, second compound 0.0316 µM) was 5.25, the pIC50 (curve of first compound, second compound 0.1 µM) was 5.99 and the pIC50 (curve of first compound, second compound 0.316 µM) was greater than 7.50. It also gave a pIC50 (curve of first compound, second compound 1 µM) greater than 7.50, a pIC50 (curve of first compound, second compound 3.16 µM) greater than 7.50 and a pIC50 (curve of first compound, second compound 10 µM) greater than 7.50. It also gave a viability, T/C (second compound 0.0316 µM, first compound 0.0316 µM) of 90.8%, a viability, T/C (second compound 0.0316 µM, first compound 0.1 µM) of 79.9% and a viability, T/C (second compound 0.0316 µM, first compound 0.316 µM) of 112%. For the same compound, the viability, T/C (second compound 0.0316 µM, first compound 1 µM) was 92.2%, the viability, T/C (second compound 0.0316 µM, first compound 3.16 µM) was 114% and the viability, T/C (second compound 0.0316 µM, first compound 10 µM) was 3.65%. The viability, T/C (second compound 0.1 µM, first compound 0.0316 µM) was 50.6%, the viability, T/C (second compound 0.1 µM, first compound 0.1 µM) was 52.7% and the viability, T/C (second compound 0.1 µM, first compound 0.316 µM) was 48.5%. It also gave a viability, T/C (second compound 0.1 µM, first compound 1 µM) of 49.6%, a viability, T/C (second compound 0.1 µM, first compound 3.16 µM) of 46% and a viability, T/C (second compound 0.1 µM, first compound 10 µM) of 6.89%. The viability, T/C (second compound 0.316 µM, first compound 0.0316 µM) was 23.8%, the viability, T/C (second compound 0.316 µM, first compound 0.1 µM) was 23.8% and the viability, T/C (second compound 0.316 µM, first compound 0.316 µM) was 19.8%. The viability, T/C (second compound 0.316 µM, first compound 1 µM) was 19.9%, the viability, T/C (second compound 0.316 µM, first compound 3.16 µM) was 21.4% and the viability, T/C (second compound 0.316 µM, first compound 10 µM) was 5.35%. It also gave a viability, T/C (second compound 1 µM, first compound 0.0316 µM) of 17.7%, a viability, T/C (second compound 1 µM, first compound 0.1 µM) of 20.9% and a viability, T/C (second compound 1 µM, first compound 0.316 µM) of 17.9%. The viability, T/C (second compound 1 µM, first compound 1 µM) was 20.2%, the viability, T/C (second compound 1 µM, first compound 3.16 µM) was 16.9% and the viability, T/C (second compound 1 µM, first compound 10 µM) was 4.43%. For the same compound, the viability, T/C (second compound 3.16 µM, first compound 0.0316 µM) was 22.2%, the viability, T/C (second compound 3.16 µM, first compound 0.1 µM) was 14.9% and the viability, T/C (second compound 3.16 µM, first compound 0.316 µM) was 18.7%. It also gave a viability, T/C (second compound 3.16 µM, first compound 1 µM) of 15.1%, a viability, T/C (second compound 3.16 µM, first compound 3.16 µM) of 19.5% and a viability, T/C (second compound 3.16 µM, first compound 10 µM) of 4.41%. It also gave a viability, T/C (second compound 10 µM, first compound 0.0316 µM) of 18.2%, a viability, T/C (second compound 10 µM, first compound 0.1 µM) of 19.6% and a viability, T/C (second compound 10 µM, first compound 0.316 µM) of 20%. It also gave a viability, T/C (second compound 10 µM, first compound 1 µM) of 17.6%, a viability, T/C (second compound 10 µM, first compound 3.16 µM) of 15.1% and a viability, T/C (second compound 10 µM, first compound 10 µM) of 5.26%.

For `NC(=O)C(=Cn1cnc(-c2cc(C(F)(F)F)cc(C(F)(F)F)c2)n1)c1cncnc1`, the viability, T/C (compound 0.00949 µM) was 133% and 162%, the viability, T/C (compound 0.03 µM) was 110% and 130% and the viability, T/C (compound 0.0949 µM) was 30.4% and 25.3%. The viability, T/C (compound 0.3 µM) was 11.7% and 9.71%, the viability, T/C (compound 0.949 µM) was 10.5% and 7.35% and the viability, T/C (compound 3 µM) was 4.97% and 5%. The pIC50 (curve of compound) was 7.14.
